In PubChem BioAssay AID248 (DTP/NCI, 2004):
Several values for one entry are separate records, joined by “and”; a condition that tells them apart may be missing. Equal values may be shown once. Toxic doses and inconclusive results are not listed. Rule as the data show it: active = T/C of 150% or more; inactive = T/C below 125%.

Tested on: L1210 leukemia ip in BDF1 mice, survival T/C
Test: NCI In Vivo Anticancer Drug Screen. Data for tumor model L1210 Leukemia (intraperitoneal) in B6D2F1 (BDF1) mice
Conditions: endpoint: mean survival time, higher = longer survival
Outline: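 Value reflects the ratio of survival in compound-treated mice to survival in vehicle-treated controls, with both groups carrying the same transplanted tumor.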

[1] = dose: 100.0 mg/kg/injection, schedule: Q01DX001 (ip), vehicle: Klucel (hydroxypropylcellulose) (HPC)
[2] = dose: 100.0 mg/kg/injection, schedule: Q01DX009 (ip), vehicle: saline
[3] = dose: 100.0 mg/kg/injection, schedule: Q04DX003 (ip), vehicle: Klucel (hydroxypropylcellulose) (HPC)
[4] = dose: 100.0 mg/kg/injection, schedule: Q04DX003 (ip), vehicle: saline
[5] = dose: 200.0 mg/kg/injection, schedule: Q01DX001 (ip), vehicle: Klucel (hydroxypropylcellulose) (HPC)
[6] = dose: 200.0 mg/kg/injection, schedule: Q01DX009 (ip), vehicle: saline
[7] = dose: 200.0 mg/kg/injection, schedule: Q04DX003 (ip), vehicle: saline
[8] = dose: 400.0 mg/kg/injection, schedule: Q04DX003 (ip), vehicle: saline

Measured: T/C

CC(C)C(=O)Nc1ccc([N+](=O)[O-])c(C(F)(F)F)c1
inactive: [1] 102 % of control | dose: 100.0 mg/kg/injection, schedule: Q01DX009 (ip), vehicle: Klucel (hydroxypropylcellulose) (HPC) 93 % of control and 109 % of control | [2] 105 % of control | dose: 100.0 mg/kg/injection, schedule: Q04DX002 (ip), vehicle: Klucel (hydroxypropylcellulose) (HPC) 97 % of control and 92 % of control | [3] 100 % of control | [4] 108 % of control | [5] 102 % of control | dose: 200.0 mg/kg/injection, schedule: Q01DX009 (ip), vehicle: Klucel (hydroxypropylcellulose) (HPC) 100 % of control and 103 % of control | [6] 92 % of control | dose: 200.0 mg/kg/injection, schedule: Q04DX002 (ip), vehicle: Klucel (hydroxypropylcellulose) (HPC) 100 % of control and 102 % of control | dose: 200.0 mg/kg/injection, schedule: Q04DX003 (ip), vehicle: Klucel (hydroxypropylcellulose) (HPC) 109 % of control | [7] 101 % of control | dose: 400.0 mg/kg/injection, schedule: Q01DX001 (ip), vehicle: Klucel (hydroxypropylcellulose) (HPC) 110 % of control | dose: 400.0 mg/kg/injection, schedule: Q04DX002 (ip), vehicle: Klucel (hydroxypropylcellulose) (HPC) 100 % of control and 113 % of control | dose: 400.0 mg/kg/injection, schedule: Q04DX003 (ip), vehicle: Klucel (hydroxypropylcellulose) (HPC) 92 % of control | [8] 88 % of control

CCCC(C)C(C#N)c1ccccc1 (centres undefined)
inactive: dose: 25.0 mg/kg/injection, schedule: Q01DX009 (ip), vehicle: Klucel (hydroxypropylcellulose) (HPC) 101 % of control and 103 % of control | dose: 25.0 mg/kg/injection, schedule: Q04DX003 (ip), vehicle: Klucel (hydroxypropylcellulose) (HPC) 95 % of control | dose: 50.0 mg/kg/injection, schedule: Q01DX009 (ip), vehicle: Klucel (hydroxypropylcellulose) (HPC) 93 % of control and 98 % of control and 90 % of control | dose: 50.0 mg/kg/injection, schedule: Q04DX003 (ip), vehicle: Klucel (hydroxypropylcellulose) (HPC) 88 % of control | [3] 89 % of control

COc1ccc(CN2CCCN(Cc3ccc(OC)cc3OC)C2c2ccc(N(CCCl)CCCl)cc2)c(OC)c1
inactive: dose: 50.0 mg/kg/injection, schedule: Q01DX001 (ip), vehicle: carboxymethylcellulose (CMC) 106 % of control | dose: 100.0 mg/kg/injection, schedule: Q01DX001 (ip), vehicle: carboxymethylcellulose (CMC) 101 % of control | dose: 200.0 mg/kg/injection, schedule: Q01DX001 (ip), vehicle: carboxymethylcellulose (CMC) 115 % of control | dose: 400.0 mg/kg/injection, schedule: Q01DX001 (ip), vehicle: carboxymethylcellulose (CMC) 106 % of control

CN(C)CCNS(C)(=O)=O
inactive: [2] 105 % of control | [4] 98 % of control | [6] 105 % of control | [7] 100 % of control | dose: 400.0 mg/kg/injection, schedule: Q01DX009 (ip), vehicle: saline 109 % of control | [8] 100 % of control

COc1ccccc1N=Nc1c(O)n(-c2ccc(C)cc2)c(=S)n(-c2ccc(C)cc2)c1=O
inactive: dose: 50.0 mg/kg/injection, schedule: Q01DX001 (ip), vehicle: Klucel (hydroxypropylcellulose) (HPC) 86 % of control | [1] 89 % of control | [5] 102 % of control

CCCCOC(=O)c1cccnc1
inactive: dose: 50.0 mg/kg/injection, schedule: Q04DX003 (ip), vehicle: saline with Tween-80 97 % of control | dose: 100.0 mg/kg/injection, schedule: Q04DX003 (ip), vehicle: saline with Tween-80 94 % of control and 102 % of control | dose: 200.0 mg/kg/injection, schedule: Q04DX003 (ip), vehicle: saline with Tween-80 103 % of control | dose: 400.0 mg/kg/injection, schedule: Q04DX003 (ip), vehicle: saline with Tween-80 91 % of control

ClC1=C(Cl)C(Cl)(Cl)C2C1C1C(Cl)=C(Cl)C(Cl)(Cl)C1C1C2C(Cl)=C(Cl)C1(Cl)Cl (centres undefined)
inactive: dose: 100.0 mg/kg/injection, schedule: Q01DX001 (ip), vehicle: gum acacia 95 % of control | dose: 100.0 mg/kg/injection, schedule: Q01DX009 (ip), vehicle: gum acacia 92 % of control | dose: 200.0 mg/kg/injection, schedule: Q01DX001 (ip), vehicle: gum acacia 88 % of control | dose: 200.0 mg/kg/injection, schedule: Q01DX009 (ip), vehicle: gum acacia 94 % of control | dose: 400.0 mg/kg/injection, schedule: Q01DX001 (ip), vehicle: gum acacia 92 % of control | dose: 400.0 mg/kg/injection, schedule: Q01DX009 (ip), vehicle: gum acacia 93 % of control
